Measurements as given in patent EP1137645B1, “ALPHA-METHYLBENZYL-CONTAINING THIOUREA INHIBITORS OF HERPES VIRUSES CONTAINING A […] GROUP” (Wyeth, priority 1998, dated 2000).
Values after ≈ are worked out from the molar mass of the structure shown. Like-named read-outs stand apart in the source and are kept apart here.

Legend:
[1] = system: HCMV recombinant mutant virus whose genome contains the prokaryotic beta-glucuronidase gene; assay: microbe, parasite or virus in culture; type: cell-based, human cytomegalovirus; conditions: for IC50: Human betaherpesvirus 5, Fibroblast; for IC50 ug/ml HCMV: human foreskin fibroblasts
In short: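 Antiviral IC50 estimated from reduced reporter activity across compound amounts: lysates prepared 96 h after infection were tested with p-nitrophenyl- or methylumbelliferyl-glucuronide. Cells were human foreskin fibroblasts, infected alongside inhibitor with HCMV (e.g. RV145) expressing viral promoter-driven beta-glucuronidase.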

HSV- I = assay: HSV antiviral (ELISA) assay; type: cell-based; conditions: for IC50: read-out: IC50 (ug/ml) HSV
In short: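 IC50 from fluorescence versus untreated control in a cell ELISA: anti-glycoprotein D antibody, β-galactosidase-conjugated secondary, 4-methyl umbelliferone read at 365/450 nm. Vero cells (2% FBS DMEM) received compound 30 min pre-infection with HSV-1 at MOI 0.006, fixed ~24 h post-infection.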

VZV strain Ellen = assay: VZV antiviral (ELISA) assay; type: cell-based
In short: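 HFF cells infected with VZV Ellen at multiplicity below 0.1 overnight, then mixed infected/uninfected cells seeded with compound in DMEM/2% FBS and incubated three days at 37°C, 5% CO2.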

[2] = read-out: IC50 ug/ml HCMV, HCMV, human foreskin fibroblasts
[3] = Human alphaherpesvirus 3, HFF, read-out: IC50 (ug/ml) VZV, VZV strain Ellen, HFF cells, ELISA
[4] = Human alphaherpesvirus 3, VZV strain Ellen, HFF cells, ELISA, read-out: IC50 (ug/ml) VZV
[5] = VZV strain Ellen, HFF cells, ELISA

Row | Molecule | IC50 [1, 2] [µg/mL] | IC50 (HSV- I; HSV- I, Vero cells, ELISA) [µg/mL] | IC50 (HSV- I; Vero) [µg/mL] | IC50 (VZV strain Ellen; [3]) [µg/mL] | IC50 ([1]; read-out: IC50 ug/ml HCMV) [µg/mL] | IC50 (VZV strain Ellen; [4]) [µg/mL] | further results
1 | CC(NC(=S)Nc1ccc(NC(=O)c2cccc3cccnc23)cc1)c1ccc(F)cc1 (stereo not shown) [Example 991, Quinoline-8-carboxylic acid (4-{3-[1-(4-fluoro-phenyl)-ethyl]-thioureido}-phenyl)-amide] | 7.4 (≈ 16.6 µM) | > 10 | – | – | – | – | IC50 (VZV strain Ellen; Human alphaherpesvirus 3, HFF, read-out: IC50 (ug/ml) VZV): 0.1 µg/mL (≈ 0.225 µM)
2 | CC(C)COc1ccc(NC(=S)Nc2ccc(NC(=O)c3ccccc3F)cc2)cc1Cl [Example 994, N-{4-[3-(3-Chloro-4-isobutoxy-phenyl)-thioureido]-phenyl}-2-fluoro-benzamide] | > 10 | – | > 10 | > 10 | – | – | –
3 | COc1ccc(NC(=S)Nc2ccc(NC(=O)c3ccccc3F)cc2)cc1F [Example 995, 2-Fluoro-N-{4-[3-(3-fluoro-4-methoxy-phenyl)-thioureido]-phenyl}-benzamide] | – | > 10 | – | – | > 10 | > 10 | –
4 | COCCOc1ccc(NC(=S)Nc2ccc(NC(=O)c3ccccc3F)cc2)cc1Cl [Example 996, N-(4-{3-[3-Chloro-4-(2-methoxy-ethoxy)-phenyl]-thioureido}-phenyl)-2-fluoro-benzamide] | > 10 | – | > 10 | 10 (≈ 21.1 µM) | – | – | –
5 | Cc1ccc(NC(=S)Nc2ccc(NC(=O)c3ccccc3F)cc2)cc1F [Example 997, 2-Fluoro-N-{4-[3-(3-fluoro-4-methyl-phenyl)-thioureido]-phenyl}-benzamide] | – | 1.9 (≈ 4.78 µM) | – | – | 4 (≈ 10.1 µM) | > 10 | –
6 | COc1ccc(NC(=S)Nc2ccc(NC(=O)c3ccccc3F)cc2)cc1C(F)(F)F [Example 998, 2-Fluoro-N-{4-[3-(4-methoxy-3-trifluoromethyl-phenyl)-thioureido]-phenyl}-benzamide] | – | 3 (≈ 6.47 µM) | – | – | > 10 | 5 (≈ 10.8 µM) | –
7 | Nc1ccc(C(F)(F)F)cc1NC(=S)Nc1ccc(NC(=O)c2ccccc2F)cc1 [Example 999, N-{4-[3-(2-Amino-5-trifluoromethyl-phenyl)-thioureido]-phenyl}-2-fluoro-benzamide] | – | 2.2 (≈ 4.91 µM) | – | – | 4 (≈ 8.92 µM) | 9.4 (≈ 21 µM) | –
8 | COc1ccc(C(C)NC(=S)Nc2ccc(NC(=O)c3ccccc3F)cc2)cc1Cl (stereo not shown) [Example 1000, N-(4-{3-[1-(3-Chloro-4-methoxy-phenyl)-ethyl]-thioureido}-phenyl)-2-fluoro-benzamide] | 2 (≈ 4.37 µM) | – | > 10 | 6 (≈ 13.1 µM) | – | – | –
9 | O=C(Nc1ccc(NC(=S)Nc2cc(Cl)ccc2O)cc1)c1ccccc1F [Example 1001, N-{4-[3-(5-Chloro-2-hydroxy-phenyl)-thioureido]-phenyl}-2-fluoro-benzamide] | 2.6 (≈ 6.25 µM) | – | 4.3 (≈ 10.3 µM) | 3.6 (≈ 8.66 µM) | – | – | –
10 | CC(NC(=S)Nc1ccc(NC(=O)c2ccccc2F)cc1)c1cc2ccccc2o1 (stereo not shown) [Example 1002, N-{4-[3-(1-Benzofuran-2-yl-ethyl)-thioureido]-phenyl}-2-fluoro-benzamide] | 2.1 (≈ 4.84 µM) | – | > 10 | 0.08 (≈ 0.185 µM) | – | – | –
11 | Cc1ccc(NC(=S)Nc2ccc(NC(=O)c3ccccc3F)cc2)cc1C(F)(F)F [Example 1003, 2-Fluoro-N-{4-[3-(4-methyl-3-trifluoromethyl-phenyl)-thioureido]-phenyl}-benzamide] | – | > 10 | – | – | > 10 | > 10 | –
12 | C[C@H](NC(=S)Nc1ccc(NC(=O)c2ccccc2F)cc1)c1ccc(Br)cc1 [Example 1004, (S)-N-(4-{3-[1-(4-Bromo-phenyl)-ethyl]-thioureido}-phenyl)-2-fluoro-benzamide] | 4.2 (≈ 8.89 µM) | – | > 10 | 0.06 (≈ 0.127 µM) | – | – | –
13 | COc1cc(OCC(F)(F)F)ccc1NC(=S)Nc1ccc(NC(=O)c2ccccc2F)cc1 [Example 1006, 2-Fluoro-N-(4-{3-[2-methoxy-4-(2,2,2-trifluoro-ethoxy)-phenyl]-thioureido}-phenyl)-benzamide] | – | 8.3 (≈ 16.8 µM) | – | – | 8.9 (≈ 18 µM) | 11 (≈ 22.3 µM) | –
14 | Nc1ccc(F)cc1NC(=S)Nc1ccc(NC(=O)c2ccccc2F)cc1 [Example 1007, N-{4-[3-(2-Amino-5-fluoro-phenyl)-thioureido]-phenyl}-2-fluoro-benzamide] | – | 1.2 (≈ 3.01 µM) | – | – | > 10 | > 10 | –
15 | CC(NC(=S)Nc1ccc(NC(=O)c2ccccc2F)cc1)c1ccc(S(=O)(=O)N(C)C)cc1 (stereo not shown) [Example 1008, N-(4-{3-[1-(4-Dimethylsulfamoyl-phenyl)-ethyl]-thioureido}-phenyl)-2-fluoro-benzamide] | 8.5 (≈ 17 µM) | – | > 10 | > 10 | – | – | –
16 | CC(NC(=S)Nc1ccc(NC(=O)c2ccccc2F)cc1)c1ccc(S(=O)(=O)N2CCCCC2)cc1 (stereo not shown) [Example 1009, 2-Fluoro-N-[4-(3-{1-[4-(piperidine-1-sulfonyl)-phenyl]-ethyl}-thioureido)-phenyl]-benzamide] | > 10 | – | > 10 | > 10 | – | – | –
17 | O=C(Nc1ccc(NC(=S)Nc2ccc(OCC(F)(F)F)cc2OCC(F)(F)F)cc1)c1ccccc1F [Example 1010, N-(4-{3-[2,4-Bis-(2,2,2-trifluoro-ethoxy)-phenyl]-thioureido}-phenyl)-2-fluoro-benzamide] | – | > 10 | – | – | > 10 | > 10 | –
18 | Cc1ccc([C@H](C)NC(=S)Nc2ccc(NC(=O)c3ccccc3F)cc2)cc1 [Example 1011, 2-Fluoro-N-{4-[3-((1S)-1-p-tolyl-ethyl)-thioureido]-phenyl}-benzamide] | 6.8 (≈ 16.7 µM) | – | > 10 | 0.55 (≈ 1.35 µM) | – | – | –
19 | Cc1ccc([C@@H](C)NC(=S)Nc2ccc(NC(=O)c3ccccc3F)cc2)cc1 [Example 1012, 2-Fluoro-N-{4-[3-((1R)-1-p-tolyl-ethyl)-thioureido]-phenyl}-benzamide] | 7.1 (≈ 17.4 µM) | – | > 10 | > 7.5 | – | – | –
20 | C[C@H](NC(=S)Nc1ccc(NC(=O)c2ccccc2F)cc1)c1ccccc1 [Example 1013, 2-Fluoro-N-{4-[3-((1S)-1-phenyl-ethyl)-thioureido]-phenyl}-benzamide] | – | > 10 | – | – | 8.2 (≈ 20.8 µM) | 0.27 (≈ 0.686 µM) | –
21 | C[C@@H](NC(=S)Nc1ccc(NC(=O)c2ccccc2F)cc1)c1ccc(Cl)cc1 [Example 1014, N-(4-{3-[(1R)-1-(4-Chloro-phenyl)-ethyl]-thioureido}-phenyl)-2-fluoro-benzamide] | 2.9 (≈ 6.78 µM) | – | > 10 | > 7.5 | – | – | –
22 | C[C@H](NC(=S)Nc1ccc(NC(=O)c2ccccc2F)cc1)c1ccc(Cl)cc1 [Example 1015, N-(4-{3-[(1S)-1-(4-Chloro-phenyl)-ethyl]-thioureido}-phenyl)-2-fluoro-benzamide] | 2.5 (≈ 5.84 µM) | – | > 10 | 0.03 (≈ 0.0701 µM) | – | – | –
23 | C[C@@H](NC(=S)Nc1ccc(NC(=O)c2ccccc2F)cc1)c1ccccc1 [Example 1016, 2-Fluoro-N-{4-[3-((1R)-1-phenyl-ethyl)-thioureido]-phenyl}-benzamide] | – | > 10 | – | – | 6.4 (≈ 16.3 µM) | > 7.5 | –
24 | COc1ccccc1C(=O)Nc1ccc(NC(=S)NC(C)c2ccc(C#N)cc2)cc1 (stereo not shown) [Example 1017, N-(4-{3-[1-(4-Cyano-phenyl}-ethyl]-thioureido}-phenyl)-2-methoxy-benzamide] | > 10 | – | > 10 | 0.3 (≈ 0.697 µM) | – | – | –
25 | COc1ccccc1C(=O)Nc1ccc(NC(=S)NC(C)c2cc3ccccc3o2)cc1 (stereo not shown) [Example 1018, N-{4-[3-(1-Benzofuran-2-yl-ethyl)-thioureido]-phenyl}-2-methoxy-benzamide] | > 10 | – | > 10 | 0.09 (≈ 0.202 µM) | – | – | –
26 | CC(NC(=S)Nc1ccc(NC(=O)c2cccc(C#N)c2)cc1)c1ccc(F)cc1 (stereo not shown) [Example 1020, 3-Cyano-N-(4-{3-[1-(4-fluoro-phenyl)-ethyl]-thioureido}-phenyl)-benzamide] | – | > 10 | – | – | 6.5 (≈ 15.5 µM) | 6.3 (≈ 15.1 µM) | –
27 | CC(NC(=S)Nc1ccc(NC(=O)c2ccc(C(F)(F)F)cc2)cc1)c1ccc(F)cc1 (stereo not shown) [Example 1021, N-(4-{3-[1-(4-Fluoro-phenyl)-ethyl]-thioureido}-phenyl)-4-trifluoromethyl-benzamide] | – | > 10 | – | – | > 10 | 0.4 (≈ 0.867 µM) | –
28 | CC(NC(=S)Nc1ccc(NC(=O)c2ccc(C#N)cc2)cc1)c1ccc(F)cc1 (stereo not shown) [Example 1022, 4-Cyano-N-(4-{3-[1-(4-fluoro-phenyl)-ethyl]-thioureido}-phenyl)-benzamide] | – | > 10 | – | – | 4.4 (≈ 10.5 µM) | 1.5 (≈ 3.58 µM) | –
29 | N-(4-{3-[1-(4-Bromo-phenyl)-ethyl]-thioureido}-phenyl)-2-methoxy-benzamide [Example 1019] | – | – | – | – | – | – | IC50 ug/ml HCMV [1]: 2.6 µg/mL; IC50 (ug/ml) HSV (HSV- I; HSV- I, Vero cells, ELISA): >10 µg/mL; IC50 (ug/ml) VZV (VZV strain Ellen; [5]): 0.05 µg/mL
30 | N-{4-[3-(3-Chloro-4-methoxy-phenyl)-thioureido]-phenyl}-4-methoxy-benzamide [Example 821] | – | – | – | – | – | – | IC50 ug/ml HCMV [1]: 1 µg/mL; IC50 (ug/ml) HSV (HSV- I; HSV- I, Vero cells, ELISA): 0.15 µg/mL; % inhibition 10 ug/ml VZV (VZV strain Ellen; 10 ug/ml, VZV strain Ellen, HFF cells, ELISA): 55%; IC50 (ug/ml) VZV (VZV strain Ellen; [5]): >10 µg/mL
